One test deals with A2780 cells. The test can be described thus: Viability assay in A2780 (Cell Titer Glo). The class given is cell-based, human. The settings on record: Homo sapiens, A2780 cells, read-out: A2780 Cell prolif. EC50. In outline:
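A2780 cells (1,000/well, DMEM + 10% FBS) were exposed to 3-fold serial dilutions of compound for 72 hrs at 37° C, 5% CO2. Viable cells were read by Cell Titer Glo luminescence, in duplicate, and EC50 values were derived from the curves.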
Background: Cellular ATP, detected with luciferase, serves as a proxy for viable cell number.

Another test deals with PI3 K Alpha (Homo sapiens, UniProt P42336). The test is described as follows: PI3 kinase phosphorylation assays (homogenous solution phase, one step solid phase, ATP depletion/KinaseGlo). It is filed as biochemical. A general note: Kinase-Glo measures the ATP left after a reaction by luminescence.

Read-outs that look alike come from different tables or passages of the source.

PI3 K Alpha, sequence (P42336 whole entry): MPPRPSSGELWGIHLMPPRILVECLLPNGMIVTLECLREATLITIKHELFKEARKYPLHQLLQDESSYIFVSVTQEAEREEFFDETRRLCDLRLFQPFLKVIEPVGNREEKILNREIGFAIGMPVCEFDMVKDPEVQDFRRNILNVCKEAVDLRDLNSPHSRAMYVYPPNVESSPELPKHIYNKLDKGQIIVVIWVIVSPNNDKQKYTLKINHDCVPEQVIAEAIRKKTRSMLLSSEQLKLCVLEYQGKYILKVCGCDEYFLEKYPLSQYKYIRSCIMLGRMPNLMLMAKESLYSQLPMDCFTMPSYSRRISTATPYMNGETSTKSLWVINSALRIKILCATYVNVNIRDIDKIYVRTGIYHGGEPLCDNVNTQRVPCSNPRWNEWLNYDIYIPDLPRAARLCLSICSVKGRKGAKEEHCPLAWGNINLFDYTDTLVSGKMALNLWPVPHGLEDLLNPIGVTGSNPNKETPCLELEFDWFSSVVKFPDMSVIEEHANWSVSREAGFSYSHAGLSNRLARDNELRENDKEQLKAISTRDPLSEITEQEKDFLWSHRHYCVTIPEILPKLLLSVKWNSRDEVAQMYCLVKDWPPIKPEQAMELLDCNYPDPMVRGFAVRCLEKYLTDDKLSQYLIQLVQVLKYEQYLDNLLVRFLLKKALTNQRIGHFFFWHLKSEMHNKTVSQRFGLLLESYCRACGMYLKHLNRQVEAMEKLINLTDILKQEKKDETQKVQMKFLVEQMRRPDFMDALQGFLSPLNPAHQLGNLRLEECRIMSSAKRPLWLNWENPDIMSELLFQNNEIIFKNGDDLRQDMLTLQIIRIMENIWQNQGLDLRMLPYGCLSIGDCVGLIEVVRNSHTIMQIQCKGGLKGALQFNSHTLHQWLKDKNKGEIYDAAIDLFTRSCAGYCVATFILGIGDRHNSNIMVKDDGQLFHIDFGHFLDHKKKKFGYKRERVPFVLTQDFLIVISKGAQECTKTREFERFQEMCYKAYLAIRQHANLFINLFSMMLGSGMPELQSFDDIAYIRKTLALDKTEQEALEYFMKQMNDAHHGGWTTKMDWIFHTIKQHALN
PI3 K Alpha, sequence (P27986 whole entry partner): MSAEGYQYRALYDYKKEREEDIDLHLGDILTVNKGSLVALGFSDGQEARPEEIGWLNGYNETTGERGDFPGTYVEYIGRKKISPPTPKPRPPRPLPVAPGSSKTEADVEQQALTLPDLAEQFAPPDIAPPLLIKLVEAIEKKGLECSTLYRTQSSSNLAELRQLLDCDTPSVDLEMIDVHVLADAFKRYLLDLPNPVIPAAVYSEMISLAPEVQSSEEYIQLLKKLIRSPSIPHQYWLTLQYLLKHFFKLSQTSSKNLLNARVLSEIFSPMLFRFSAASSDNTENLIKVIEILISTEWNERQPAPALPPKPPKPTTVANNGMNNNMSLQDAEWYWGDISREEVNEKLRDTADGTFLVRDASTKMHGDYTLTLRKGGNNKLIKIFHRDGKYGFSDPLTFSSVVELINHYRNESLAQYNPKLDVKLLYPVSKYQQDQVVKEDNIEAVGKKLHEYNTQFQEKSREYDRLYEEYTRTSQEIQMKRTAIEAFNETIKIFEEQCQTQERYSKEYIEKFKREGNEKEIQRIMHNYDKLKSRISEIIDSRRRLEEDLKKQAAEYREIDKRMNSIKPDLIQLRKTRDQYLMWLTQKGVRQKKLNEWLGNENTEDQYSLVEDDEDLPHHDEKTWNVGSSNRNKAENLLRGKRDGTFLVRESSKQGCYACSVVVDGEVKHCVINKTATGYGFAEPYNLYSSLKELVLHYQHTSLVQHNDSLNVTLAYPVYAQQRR

For `Nc1ncc(-c2ccc3nc(NC(=O)CN4CCCCC4)cn3c2)nc1OCC(F)(F)F` [Example 109, N-(6-(5-amino-6-(2,2,2-trifluoroethoxy)pyrazin-2-yl)imidazo[1,2-a]pyridin-2-yl)-2-(piperidin-1-yl)acetamide], the EC50 (usually the concentration needed to bring the measured effect to its halfway point) in the test on A2780 cells was less than 1 µM. For the same compound, on PI3 K Alpha (read-out: PI3K Alpha IC50), the IC50 (as a rule, the point on the concentration scale where inhibition reaches its midpoint) was less than 1 µM.

In the case of `Nc1ncc(-c2ccc3nc(NC(=O)N4CC[C@H]4C(=O)O)cn3c2)cc1C(F)(F)F` [Example 45, (S)-1-(6-(6-amino-5-(trifluoromethyl)pyridin-3-yl)imidazo[1,2-a]pyridin-2-ylcarbamoyl) azetidine-2-carboxylic acid], in the test with A2780 cells, the EC50 was less than 25 µM. In addition, on PI3 K Alpha (read-out: PI3K Alpha IC50), the 50% inhibitory concentration (IC50) is less than 10 µM.

In the case of `CC(=O)Nc1cn2cc(-c3cnc(N)c(C(=O)N4CCN(C(=O)OC(C)(C)C)CC4)c3)ccc2n1` [Example 152, tert-butyl 4-(5-(2-acetamido-imidazo[1,2-a]pyridin-6-yl)-2-aminonicotinoyl) piperazine-1-carboxylate], the EC50 with A2780 cells is less than 25 µM. On PI3 K Alpha (read-out: PI3K Alpha IC50), the IC50 is less than 1 µM.

Turning to `CC(C)(C)OC(=O)N1CC(C(=O)Nc2cn3cc(-c4cnc(N)c(C(F)(F)F)c4)ccc3n2)C1` [Example 234, tert-butyl 3-(6-(6-amino-5-(trifluoromethyl)pyridin-3-yl)imidazo[1,2-a]pyridin-2-ylcarbamoyl) azetidine-1-carboxylate], in the test with A2780 cells, the EC50 was less than 10 µM. In addition, the half-maximal inhibitory concentration (IC50) on PI3 K Alpha (read-out: PI3K Alpha IC50) is less than 1 µM.

As to `C[C@@H](N)C(=O)Nc1cn2nc(-c3cnc(N)c(C(F)(F)F)c3)ccc2n1` [Example 223, (R)-2-amino-N-(6-(6-amino-5-(trifluoromethyl)pyridin-3-yl)imidazo[1,2-b]pyridazin-2-yl)propanamide], in the test on A2780 cells, the 50% effective concentration (EC50) was less than 10 µM. Also, the IC50 at PI3 K Alpha (read-out: PI3K Alpha IC50) is less than 1 µM.

In the case of `Nc1ncc(-c2ccc3nc(NC(=O)[C@H]4CCCN4)cn3n2)cc1C(F)(F)F` [Example 178, (R)-N-(6-(6-amino-5-(trifluoromethyl)pyridin-3-yl)imidazo[1,2-b]pyridazin-2-yl)pyrrolidine-2-carboxamide], the half-maximal effective concentration (EC50) in the test on A2780 cells was less than 25 µM. On PI3 K Alpha (read-out: PI3K Alpha IC50), the IC50 is less than 1 µM.

As for `Nc1ncc(-c2ccc3nc(NC(=O)c4cccc(F)c4)cn3c2)cc1C(F)(F)F` [Example 192, N-(6-(6-amino-5-(trifluoromethyl)pyridin-3-yl)imidazo[1,2-a]pyridin-2-yl)-3-fluorobenzamide], in the test with A2780 cells, the EC50 is less than 10 µM. For the same compound, the IC50 at PI3 K Alpha (read-out: PI3K Alpha IC50) was less than 1 µM.

With `C/C=C/C(=O)Nc1cn2cc(-c3cnc(N)c(C(F)(F)F)c3)ccc2n1` [Example 252, (E)-N-(6-(6-amino-5-(trifluoromethyl)pyridin-3-yl)imidazo[1,2-a]pyridin-2-yl)but-2-enamide], in the test on A2780 cells, the concentration for a half-maximal effect (EC50) was less than 10 µM. The concentration for half-maximal inhibition (IC50) on PI3 K Alpha (read-out: PI3K Alpha IC50) was less than 1 µM.

On to `Nc1ncc(-c2ccc3nc(NC(=O)N4CC[C@H](O)C4)cn3c2)cc1C(F)(F)F` [Example 224, (S)-N-(6-(6-amino-5-(trifluoromethyl)pyridin-3-yl)imidazo[1,2-a]pyridin-2-yl)-3-hydroxy-pyrrolidine-1-carboxamide], for which the concentration for a half-maximal effect (EC50) in the test with A2780 cells is less than 10 µM. Further, the concentration for half-maximal inhibition (IC50) at PI3 K Alpha (read-out: PI3K Alpha IC50) is less than 1 µM.

As for `CC(=O)Nc1cn2nc(-c3cnc(N)c(CN4CCCC4)c3)ccc2n1` [Example 242, N-(6-(6-amino-5-(pyrrolidin-1-ylmethyl)pyridin-3-yl)imidazo[1,2-b]pyridazin-2-yl)acetamide], the EC50 in the test on A2780 cells was less than 10 µM. The IC50 on PI3 K Alpha (read-out: PI3K Alpha IC50) is less than 1 µM.

Turning to `CC(=O)Nc1nc2ccc(-c3cnc(N)c(C(F)(F)F)c3)cn2c1C(N)=O` [Example 243, 2-acetamido-6-(6-amino-5-(trifluoromethyl)pyridin-3-yl)imidazo[1,2-a]pyridine-3-carboxamide], the half-maximal effective concentration (EC50) in the test with A2780 cells was less than 10 µM. Besides, the IC50 at PI3 K Alpha (read-out: PI3K Alpha IC50) was less than 1 µM.

For `Nc1ncc(-c2ccc3nc(NC(=O)CCCn4ccnc4)cn3c2)cc1C(F)(F)F` [Example 238, N-(6-(6-amino-5-(trifluoromethyl)pyridin-3-yl)imidazo[1,2-a]pyridin-2-yl)-4-(1H-imidazol-1-yl)butanamide], the EC50 in the test on A2780 cells was less than 10 µM. Further, the IC50 at PI3 K Alpha (read-out: PI3K Alpha IC50) was less than 1 µM.

Turning to `CC(=O)Nc1nc2ccc(-c3cnc(N)c(C(F)(F)F)c3)cn2c1CCc1ccccc1` [Example 254, N-(6-(6-amino-5-(trifluoromethyl)pyridin-3-yl)-3-phenethyl-imidazo[1,2-a]pyridin-2-yl)acetamide], the EC50 in the test on A2780 cells was less than 10 µM. Also, the IC50 at PI3 K Alpha (read-out: PI3K Alpha IC50) was less than 1 µM.

On to `CC(C)C(=O)Nc1cn2cc(-c3cnc(N)c(OCC(F)(F)F)n3)ccc2n1` [Example 230, N-(6-(5-amino-6-(2,2,2-trifluoroethoxy)pyrazin-2-yl)imidazo[1,2-a]pyridin-2-yl)isobutyramide], for which, in the test on A2780 cells, the EC50 was less than 10 µM. Besides, the IC50 on PI3 K Alpha (read-out: PI3K Alpha IC50) is less than 1 µM.

In the case of `COc1c(-c2cnc(N)c(C(F)(F)F)c2)ccc2nc(NC(=O)C(F)(F)F)cn12` [Example 37, N-(6-(6-amino-5-(trifluoromethyl)pyridin-3-yl)-5-methoxy-imidazo[1,2-a]pyridin-2-yl)-2,2,2-trifluoroacetamide], the EC50 in the test with A2780 cells was less than 25 µM. On PI3 K Alpha (read-out: PI3K Alpha IC50), the IC50 is less than 25 µM.

Regarding `NC(=O)Nc1cn2cc(-c3cnc(N)c(C(F)(F)F)c3)ccc2n1` [Example 219, 1-(6-(6-amino-5-(trifluoromethyl)pyridin-3-yl)imidazo[1,2-a]pyridin-2-yl)urea], in the test on A2780 cells, the EC50 is less than 10 µM. The IC50 at PI3 K Alpha (read-out: PI3K Alpha IC50) was less than 1 µM.

With `CC(=O)Nc1cccc(-c2c(NC(C)=O)nc3ccc(-c4cnc(N)c(C(F)(F)F)c4)cn23)c1` [Example 9, N-[3-(3-Acetylamino-phenyl)-6-(6-amino-5-trifluoromethyl-pyridin-3-yl)-imidazo[1,2-a]pyridin-2-yl]-acetamide], the half-maximal effective concentration (EC50) with A2780 cells was less than 25 µM. For the same compound, at PI3 K Alpha (read-out: PI3K Alpha IC50), the IC50 was less than 1 µM.

With `CCOCC(=O)Nc1cn2cc(-c3cnc(N)c(C(F)(F)F)c3)ccc2n1` [Example 199, N-(6-(6-amino-5-(trifluoromethyl)pyridin-3-yl)imidazo[1,2-a]pyridin-2-yl)-2-ethoxyacetamide], the EC50 in the test on A2780 cells was less than 10 µM. In addition, on PI3 K Alpha (read-out: PI3K Alpha IC50), the IC50 was less than 1 µM.

In the case of `CC(=O)Nc1cn2cc(-c3cnc(N)c(C(=O)N4CCCC4)c3)ccc2n1` [Example 155, N-(6-(6-amino-5-(pyrrolidine-1-carbonyl)pyridin-3-yl)imidazo[1,2-a]pyridin-2-yl)acetamide], in the test with A2780 cells, the EC50 was less than 25 µM. The IC50 at PI3 K Alpha (read-out: PI3K Alpha IC50) is less than 1 µM.

For `Nc1ncc(-c2ccc3nc(NC(=O)C4CCN4)cn3n2)cc1C(F)(F)F` (centres unmarked) [Example 189], the EC50 in the test with A2780 cells was less than 10 µM. For the same compound, the IC50 at PI3 K Alpha (read-out: PI3K Alpha IC50) is less than 1 µM.

For the compound `C[C@H](N)C(=O)Nc1cn2nc(-c3cnc(N)c(C(F)(F)F)c3)ccc2n1` [Example 239, (S)-2-amino-N-(6-(6-amino-5-(trifluoromethyl)pyridin-3-yl)imidazo[1,2-b]pyridazin-2-yl)propanamide], the EC50 in the test on A2780 cells is less than 10 µM. The IC50 on PI3 K Alpha (read-out: PI3K Alpha IC50) is less than 1 µM.

In the case of `CC(=O)Nc1cn2cc(-c3cnc(N)c(OCC4CCN(C)CC4)n3)ccc2n1` [Example 209, N-(6-(5-amino-6-((1-methylpiperidin-4-yl)methoxy)pyrazin-2-yl)imidazo[1,2-a]pyridin-2-yl)acetamide], the EC50 in the test with A2780 cells is less than 10 µM. Further, the IC50 on PI3 K Alpha (read-out: PI3K Alpha IC50) is less than 1 µM.

In the case of `CC(=O)Nc1nc2cc(C)c(-c3cnc(N)c(C(F)(F)F)c3)cc2s1` [Example 2-28, N-[6-(6-Amino-5-trifluoromethyl-pyridin-3-yl)-5-methyl-benzothiazol-2-yl]-acetamide], the EC50 in the test on A2780 cells (72 hrs) is less than 25 µM. Also, at PI3 K Alpha (ATP depletion assay, read-out: PI3 K Alpha IC50), the IC50 is less than 1 µM.

For `CC(=O)Nc1cn2nc(-c3cnc(N)c(C(=O)NCCNS(C)(=O)=O)c3)ccc2n1` [Example 141, 5-(2-acetamido-imidazo[1,2-b]pyridazin-6-yl)-2-amino-N-(2-(methylsulfon amido)ethyl) nicotinamide], the EC50 in the test on A2780 cells was less than 25 µM. Further, the IC50 on PI3 K Alpha (read-out: PI3K Alpha IC50) is less than 1 µM.

With `CNC(=O)[C@@H]1CCN1C(=O)Nc1cn2cc(-c3cnc(N)c(C(F)(F)F)c3)ccc2n1` [Example 36, (S)-N1-(6-(6-amino-5-(trifluoromethyl)pyridin-3-yl)imidazo[1,2-a]pyridin-2-yl)-N2-methylazetidine-1,2-dicarboxamide], the EC50 in the test with A2780 cells was less than 25 µM. Besides, the IC50 on PI3 K Alpha (read-out: PI3K Alpha IC50) is less than 25 µM.

On to `CC(=O)Nc1cn2nc(-c3cnc(N)cn3)ccc2n1` [Example 170], for which the EC50 in the test with A2780 cells is less than 25 µM. Also, on PI3 K Alpha (read-out: PI3K Alpha IC50), the IC50 was less than 1 µM.

For the compound `CCN1CCC(OCC(=O)Nc2cn3cc(-c4cnc(N)c(C(F)(F)F)c4)ccc3n2)CC1` [Example 221, N-(6-(6-amino-5-(trifluoromethyl)yl)imidazo[1,2-a]pyridin-2-yl)-2-(1-ethylpiperidin-4-yloxy)acetamide], the EC50 in the test on A2780 cells was less than 10 µM. Moreover, the concentration for half-maximal inhibition (IC50) at PI3 K Alpha (read-out: PI3K Alpha IC50) is less than 1 µM.

With `CCN/N=C/c1cc(-c2ccc3nc(NC(C)=O)cn3c2)cnc1N` [Example 207, (E)-N-(6-(6-amino-5-((2-ethylhydrazono)methyl)pyridin-3-yl)imidazo[1,2-a]pyridin-2-yl)acetamide], the EC50 with A2780 cells is less than 10 µM. For the same compound, the IC50 on PI3 K Alpha (read-out: PI3K Alpha IC50) was less than 1 µM.

`Nc1ncc(-c2ccc3nc(NC(=O)[C@@H]4CCN4)cn3c2)cc1C(F)(F)F` [Example 228, (S)-N-(6-(6-amino-5-(trifluoromethyl)pyridin-3-yl)imidazo[1,2-a]pyridin-2-yl)azetidine-2-carboxamide]: the EC50 with A2780 cells is less than 10 µM. Further, the IC50 at PI3 K Alpha (read-out: PI3K Alpha IC50) was less than 1 µM.

`CC(C)(C)OC(=O)N1CCC[C@H]1C(=O)Nc1cn2nc(-c3cnc(N)c(C(F)(F)F)c3)ccc2n1` [Example 166, (S)-tert-butyl 2-(6-(6-amino-5-(trifluoromethyl)pyridin-3-yl)imidazo[1,2-b]pyridazin-2-ylcarbamoyl) pyrrolidine-1-carboxylate]: the 50% effective concentration (EC50) in the test with A2780 cells was less than 25 µM. Also, the IC50 on PI3 K Alpha (read-out: PI3K Alpha IC50) is less than 1 µM.

For the compound `CC(=O)Nc1cn2cc(-c3cnc(N)c(OC4CNC4)n3)ccc2n1` [Example 149, N-(6-(5-amino-6-(azetidin-3-yloxy)pyrazin-2-yl)imidazo[1,2-a]pyridin-2-yl)acetamide], the EC50 in the test on A2780 cells is less than 25 µM. The IC50 at PI3 K Alpha (read-out: PI3K Alpha IC50) is less than 1 µM.

The values above are taken from US20100075965A1, “PI3 KINASE INHIBITORS AND METHODS OF THEIR USE” (Novartis AG, priority 2006, published 2010).
